Measured values as given in patent publication US9499553B2 (CHUGAI SEIYAKU KABUSHIKI KAISHA, priority 2013, dated 2016).
Counter-ions that a name gives are not always drawn.

target: T1, human NaPi-IIb (Homo sapiens, UniProt O95436); test: Inhibitory effect on 33PO4 uptake into human NaPi-IIb-expressing CHO cells; format: cell-based; conditions: read-out: IC50
T1 construct: expressed in transfected cells
T1 sequence (O95436 1-690): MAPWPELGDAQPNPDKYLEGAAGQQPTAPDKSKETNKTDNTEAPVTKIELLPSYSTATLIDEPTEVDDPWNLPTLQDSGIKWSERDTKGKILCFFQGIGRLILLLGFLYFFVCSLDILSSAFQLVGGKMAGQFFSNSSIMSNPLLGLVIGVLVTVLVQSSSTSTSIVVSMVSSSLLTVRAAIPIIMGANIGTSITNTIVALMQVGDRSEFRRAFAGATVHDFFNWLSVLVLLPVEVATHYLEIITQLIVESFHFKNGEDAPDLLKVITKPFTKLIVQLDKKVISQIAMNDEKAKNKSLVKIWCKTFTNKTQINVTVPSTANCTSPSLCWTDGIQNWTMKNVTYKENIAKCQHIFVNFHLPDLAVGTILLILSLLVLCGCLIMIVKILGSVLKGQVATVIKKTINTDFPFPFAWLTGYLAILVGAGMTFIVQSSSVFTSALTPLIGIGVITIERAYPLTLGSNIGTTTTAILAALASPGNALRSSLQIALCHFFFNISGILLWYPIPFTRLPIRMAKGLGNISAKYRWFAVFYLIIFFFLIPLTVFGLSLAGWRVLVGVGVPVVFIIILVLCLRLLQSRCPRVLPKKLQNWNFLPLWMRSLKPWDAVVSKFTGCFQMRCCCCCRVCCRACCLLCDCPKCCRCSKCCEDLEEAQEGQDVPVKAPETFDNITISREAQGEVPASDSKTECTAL
Protocol: Test Example 2: Inhibitory Effect on PO4 Uptake into Human NaPi-IIb-Expressing Cell CHO cells were transfected with human NaPi-IIb expression plasmids, and a stably human NaPi-IIb-expressing cell line was obtained using G418. The human NaPi-IIb-expressing cells were inoculated to a 96-well plate and incubated overnight in a CO2 incubator. […] After a given time, a 1/20 volume of buffer A containing ^33PO4 was added thereto and reacted at room temperature. After washing with ice-cold buffer A, a liquid scintillator was added to each reaction mixture, and the amount of ^33PO4 uptake was measured using TopCount.

Row | SMILES | IC50 [µM]
1 | COc1cccc(-c2cc(C(F)(F)F)ccc2NC(=O)C2=C(O)[C@@]3(C)CCCN3N(Cc3ccc(C#CCOCCCCO)c(F)c3F)C2=O)c1OC [Example 123, (4aR)-1-[[2,3-Difluoro-4-[3-(4-hydroxybutoxy)prop-1-ynil]phenyl]methyl]-N-[2-(2,3-dimethoxyphenyl)-4-(trifluoromethyl)phenyl]-4-hydroxy-4a-methyl-2-oxo-6,7-dihydro-5H-pyrrolo[1,2-b]pyridazine-3-carboxamide] | 14.8
2 | Cc1c(Cl)ncnc1-c1cc(C(F)(F)F)ccc1NC(=O)C1=C(O)[C@@]2(C)CCCN2N(Cc2cccc(F)c2F)C1=O [Example 69] | 8.9
3 | C[C@]12CCCN1N(Cc1cccc(F)c1F)C(=O)C(C(=O)Nc1ccc(C(F)(F)F)cc1-c1cc(C#N)ncn1)=C2O [Example 100] | 6.7
4 | C[C@]12CCCN1N(Cc1ccc(F)cc1)C(=O)C(C(=O)Nc1ccc(C(F)(F)F)cc1-c1ccc(C(F)(F)F)nc1)=C2O [Example 199] | 1.8
5 | C[C@]12CCCN1N(Cc1cccc(F)c1F)C(=O)C(C(=O)Nc1ccc(C(F)(F)F)cc1-c1cnc(Cl)cn1)=C2O [Example 74] | 4.1
6 | C[C@]12CCCN1N(Cc1c(Cl)cc(OCCN3CCOCC3)cc1Cl)C(=O)C(C(=O)Nc1ccc(C(F)(F)F)nc1-c1ccc(C(F)(F)F)nc1)=C2O [Example 148, (4aR)-1-[[2,6-Dichloro-4-(2-morpholin-4-ylethoxy)phenyl]methyl]-4-hydroxy-4a-methyl-2-oxo-N-[6-(trifluoromethyl)-2-[6-(trifluoromethyl)pyridin-3-yl]pyridin-3-yl]-6,7-dihydro-5H-pyrrolo[1,2-b]pyridazine-3-carboxamide hydrochloride] | 8.5
7 | C[C@]12CCCN1N(Cc1ccc(F)c(F)c1)C(=O)C(C(=O)Nc1cc(F)c(Br)c(F)c1)=C2O [Example 191] | 14.5
8 | C[C@]12CCCN1N(Cc1cccc(F)c1F)C(=O)C(C(=O)Nc1ccc(C(F)(F)F)cc1)=C2O [Example 89] | 4.8
9 | C[C@]12CCCN1N(CCCC(F)(F)F)C(=O)C(C(=O)Nc1ccc(C(F)(F)F)cc1-c1cc(C(F)(F)F)ncn1)=C2O [Example 234] | 9.4
10 | C[C@]12CCCN1N(Cc1ccc(C#N)cc1)C(=O)C(C(=O)Nc1cc(F)c(Br)c(F)c1)=C2O [Example 222] | 17.6
11 | C[C@]12CCCN1N(Cc1ccccc1)C(=O)C(C(=O)Nc1ccc(C(F)(F)F)cc1-c1cc(C(F)(F)F)ncn1)=C2O [Example 188] | 6.1
12 | C[C@]12CCCN1N(Cc1cc(F)cc(F)c1)C(=O)C(C(=O)Nc1ccc(C(F)(F)F)cc1-c1cc(C(F)(F)F)ncn1)=C2O [Example 213] | 6.4
13 | C[C@]12CCCN1N(Cc1ccc(F)cc1F)C(=O)C(C(=O)Nc1ccc(C(F)(F)F)cc1-c1ccc(C(F)(F)F)nc1)=C2O [Example 173] | 1.9
14 | Cc1ccccc1CN1C(=O)C(C(=O)Nc2ccc(C(F)(F)F)cc2-c2cc(C(F)(F)F)ncn2)=C(O)[C@@]2(C)CCCN12 [Example 185] | 4.9
15 | C[C@]12CCCN1N(Cc1c(F)cc(OCCCCCCOC[C@H](O)CO)cc1F)C(=O)C(C(=O)Nc1ccc(C(F)(F)F)cc1-c1ccc(C(F)(F)F)nc1)=C2O [Example 155] | 2.3
16 | C[C@]12CCCN1N(Cc1c(F)cc(C#CCCCCOC[C@H](O)CO)cc1F)C(=O)C(C(=O)Nc1ccc(C(F)(F)F)cc1-c1ccc(C(F)(F)F)nc1)=C2O [Example 143] | 6.7
17 | C[C@]12CCCN1N(Cc1ccc(C#CCN3CCCC3=O)c(F)c1F)C(=O)C(C(=O)Nc1ccc(Br)c(F)c1)=C2O [Example 131] | 15.3
18 | C[C@]12CCCN1N(Cc1cc(F)ccc1F)C(=O)C(C(=O)Nc1cc(F)c(Br)c(F)c1)=C2O [Example 193] | 6.4
19 | C[C@]12CCCN1N(Cc1ccc(OCCN3CCOCC3)c(F)c1F)C(=O)C(C(=O)Nc1ccc(C(F)(F)F)nc1-c1cncc(C(F)(F)F)c1)=C2O [Example 106] | 12
20 | Cc1ncc(-c2cc(C(F)(F)F)ccc2NC(=O)C2=C(O)[C@@]3(C)CCCN3N(Cc3cccc(F)c3F)C2=O)cc1C#N [Example 109, (4aR)—N-[2-(5-Cyano-6-methylpyridin-3-yl)-4-(trifluoromethyl)phenyl]-1-[(2,3-difluorophenyl)methyl]-4-hydroxy-4a-methyl-2-oxo-6,7-dihydro-5H-pyrrolo[1,2-b]pyridazine-3-carboxamide] | 9.4
21 | CN1[C@@H](C(C)(C)C)C(O)=C(C(=O)Nc2ccc(C(F)(F)F)cc2-c2ccc(C(F)(F)F)nc2)C(=O)N1Cc1cccc(F)c1F [Example 238] | 8.5

Other lines, results leading:

Row | IC50 [µM] | SMILES
22 | 15.8 | CN1N(Cc2ccc(OCCN3CCOCC3)c(F)c2F)C(=O)C(C(=O)Nc2ccc(Cl)cc2-c2cc(C(F)(F)F)ncn2)=C(O)C12CCCC2 [Example 286]
23 | 9.6 | CN1N(Cc2ccc(OCCN3CCOCC3)c(F)c2F)C(=O)C(C(=O)Nc2ccc(C(F)(F)F)cc2-c2cc(C(F)(F)F)ncn2)=C(O)C12CCC2 [Example 317, 6-[[2,3-Difluoro-4-(2-morpholin-4-ylethoxy)phenyl]methyl]-9-hydroxy-5-methyl-7-oxo-N-[4-(trifluoromethyl)-2-[6-(trifluoromethyl)pyrimidin-4-yl]phenyl]-5,6-diazaspiro[3.5] non-8-ene-8-carboxamide]
24 | 15.8 | Cc1c(Cl)ncnc1-c1cc(C(F)(F)F)ccc1NC(=O)C1=C(O)[C@H](C(C)(C)C)N(C)N(Cc2ccc(OCCN3CCOCC3)c(F)c2F)C1=O [Example 276]
25 | 17 | CN1N(Cc2ccc(OCCN3CCOCC3)c(F)c2F)C(=O)C(C(=O)Nc2ccc(C(F)(F)F)cc2-c2cc(C(F)(F)F)ncn2)=C(O)C12CCCCC2 [Example 295]
26 | 16.3 | CSc1ccc(-c2cc(C(F)(F)F)ccc2NC(=O)C2=C(O)C3(CCCC3)N(C)N(Cc3ccc(OCCN4CCOCC4)c(F)c3F)C2=O)cn1 [Example 289]
27 | 8.5 | Cc1c(-c2cc(C(F)(F)F)ccc2NC(=O)C2=C(O)C3(CCC3)N(C)N(Cc3ccc(OCCN4CCOCC4)c(F)c3F)C2=O)ncnc1C(F)(F)F [Example 285]
28 | 9.3 | CN1N(Cc2cccc(F)c2F)C(=O)C(C(=O)Nc2ccc(C(F)(F)F)cc2-c2cc(C(F)(F)F)ncn2)=C(O)C12CCC2 [Example 300]

same assay, conditions: read-out: IC50 against 33PO4 uptake into human NaPi-IIb-expressing cells

Row | IC50 [µM] | SMILES
29 | 14.5 | COCCOCCOc1ccc(CN2C(=O)C(C(=O)Nc3ccc(C(F)(F)F)cc3-c3cc(C(F)(F)F)ncn3)=C(O)C3(CCC3)N2C)c(F)c1F [Example 401, 6-[[2,3-Difluoro-4-[2-(2-methoxyethoxy)ethoxy]phenyl]methyl]-9-hydroxy-5-methyl-7-oxo-N-[4-(trifluoromethyl)-2-[6-(trifluoromethyl)pyrimidin-4-yl]phenyl]-5,6-diazaspiro[3.5]non-8-ene-8-carboxamide]
30 | 20.2 | CN1N(Cc2ccc(OCCN3[C@@H]4COC[C@H]3C4)c(F)c2F)C(=O)C(C(=O)Nc2ccc(C(F)(F)F)cc2-c2cc(C(F)(F)F)ncn2)=C(O)C12CCCC2 [Example 380]
31 | 20.2 | CN1N(Cc2ccc(OCCN3CCN(CCOCCO)CC3)c(F)c2F)C(=O)C(C(=O)Nc2ccc(C(F)(F)F)cc2-c2cc(C(F)(F)F)ncn2)=C(O)C12CCC2 [Example 361]
32 | 8.9 | CCN(CCN(C)CCOC)c1ccc(CN2C(=O)C(C(=O)Nc3ccc(C(F)(F)F)cc3-c3cc(C(F)(F)F)ncn3)=C(O)C3(CCCC3)N2C)c(F)c1F [Example 443]
33 | 16.3 | CN(CCOc1ccc(CN2C(=O)C(C(=O)Nc3ccc(C(F)(F)F)cc3-c3cc(C(F)(F)F)ncn3)=C(O)C3(CCCC3)N2C)c(F)c1F)C1CCOC1 (stereo not shown) [Example 366]
34 | 9.5 | CN1N(Cc2ccc(OCCCCOCCO)c(F)c2F)C(=O)C(C(=O)Nc2ccc(C(F)(F)F)cc2-c2cc(C(F)(F)F)ncn2)=C(O)C12CCCC2 [Example 396]
35 | 12.2 | CN(CCOc1ccc(CN2C(=O)C(C(=O)Nc3ccc(C(F)(F)F)cc3-c3cc(C(F)(F)F)ncn3)=C(O)C3(CCCC3)N2C)c(F)c1F)C1CCOCC1 [Example 365]
36 | 21.8 | CN1N(Cc2ccc(OCCN3CC(F)(F)C3)c(F)c2F)C(=O)C(C(=O)Nc2ccc(C(F)(F)F)cc2-c2cc(C(F)(F)F)ncn2)=C(O)C12CCCC2 [Example 369]
37 | 26.1 | CN(CCOCCC(=O)NCC(O)CO)CCOc1ccc(CN2C(=O)C(C(=O)Nc3ccc(C(F)(F)F)cc3-c3cc(C(F)(F)F)ncn3)=C(O)C3(CCCC3)N2C)c(F)c1F (stereo not shown) [Example 426]
38 | 11.3 | CN1N(Cc2ccc(OCC3CCCO3)c(F)c2F)C(=O)C(C(=O)Nc2ccc(C(F)(F)F)cc2-c2cc(C(F)(F)F)ncn2)=C(O)C12CCCC2 (stereo not shown) [Example 413]
39 | 11.1 | CN1N(Cc2ccc(NCCCN3CCOCC3)c(F)c2F)C(=O)C(C(=O)Nc2ccc(C(F)(F)F)cc2-c2cc(C(F)(F)F)ncn2)=C(O)C12CCCC2 [Example 446]
40 | 9.2 | COCCN(C)CCN(c1ccc(CN2C(=O)C(C(=O)Nc3ccc(C(F)(F)F)cc3-c3cc(C(F)(F)F)ncn3)=C(O)C3(CCCC3)N2C)c(F)c1F)C(C)C [Example 445]
